In PubChem BioAssay (NCI):
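Cultured in 96-well plates, cells were exposed to test compound for 48 hours across five concentrations. The concentration for 50% growth inhibition is given as GI50. TGI denotes the concentration required for complete inhibition of growth.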

Tests used:
Experiment in all cases: NCI anticancer screen, dose series, 48 h
HCT-15 colon = system: HCT-15 colon
HT29 colon = system: HT29 colon
DU-145 prostate = system: DU-145 prostate
LOX IMVI melanoma = system: LOX IMVI melanoma
CAKI-1 renal = system: CAKI-1 renal
UO-31 renal = system: UO-31 renal
HS 578T breast = system: HS 578T breast
SK-MEL-28 melanoma = system: SK-MEL-28 melanoma
MDA-MB-435 = system: MDA-MB-435
SNB-75 CNS = system: SNB-75 CNS
HL-60(TB) leukemia = system: HL-60(TB) leukemia
KM12 colon = system: KM12 colon
K-562 leukemia = system: K-562 leukemia
SK-MEL-5 melanoma = system: SK-MEL-5 melanoma
NCI-H522 lung = system: NCI-H522 lung
EKVX NSCLC = system: EKVX NSCLC
NCI-H226 lung = system: NCI-H226 lung
A549 NSCLC = system: A549 NSCLC
NCI/ADR-RES ovarian = system: NCI/ADR-RES ovarian
MOLT-4 leukemia = system: MOLT-4 leukemia
T-47D breast = system: T-47D breast
CCRF-CEM leukemia = system: CCRF-CEM leukemia
MCF7 breast = system: MCF7 breast
SN12C renal = system: SN12C renal
SK-MEL-2 melanoma = system: SK-MEL-2 melanoma
SF-539 CNS = system: SF-539 CNS
NCI-H23 lung = system: NCI-H23 lung
MDA-MB-231 breast = system: MDA-MB-231 breast
OVCAR-5 ovarian = system: OVCAR-5 ovarian
PC-3 prostate = system: PC-3 prostate
SW-620 colon = system: SW-620 colon
HCT-116 colon = system: HCT-116 colon
HOP-92 NSCLC = system: HOP-92 NSCLC
OVCAR-8 ovarian = system: OVCAR-8 ovarian
RPMI-8226 leukemia = system: RPMI-8226 leukemia
SNB-19 CNS = system: SNB-19 CNS
M14 melanoma = system: M14 melanoma
NCI-H460 lung = system: NCI-H460 lung
BT-549 breast = system: BT-549 breast
ACHN renal = system: ACHN renal
COLO 205 colon = system: COLO 205 colon
TK-10 renal = system: TK-10 renal
OVCAR-4 ovarian = system: OVCAR-4 ovarian
SF-268 CNS = system: SF-268 CNS
U251 CNS = system: U251 CNS
HCC-2998 colon = system: HCC-2998 colon
786-0 renal = system: 786-0 renal
OVCAR-3 ovarian = system: OVCAR-3 ovarian
UACC-257 melanoma = system: UACC-257 melanoma
SR leukemia = system: SR leukemia
A498 renal = system: A498 renal
SF-295 CNS = system: SF-295 CNS
IGROV1 ovarian = system: IGROV1 ovarian
UACC-62 melanoma = system: UACC-62 melanoma
HOP-62 NSCLC = system: HOP-62 NSCLC

COc1ccc2c(c1)CCC1C2CCC2(C)C3=CC(O)CCC3CC12 (stereo not given)
GI50 (HCT-15 colon): 7.06 µM
TGI (HCT-15 colon): 21.2 µM
GI50 (HT29 colon): 11 µM
TGI (HT29 colon): 37.4 µM
GI50 (DU-145 prostate): 15.7 µM
TGI (DU-145 prostate): 30.2 µM
GI50 (LOX IMVI melanoma): 15.4 µM
TGI (LOX IMVI melanoma): 31.8 µM
GI50 (CAKI-1 renal): 21.9 µM
TGI (CAKI-1 renal): 45.5 µM
GI50 (UO-31 renal): 19.8 µM
TGI (UO-31 renal): 40.9 µM
GI50 (HS 578T breast): 23.4 µM
TGI (HS 578T breast): 49.1 µM
GI50 (SK-MEL-28 melanoma): 21.8 µM
TGI (SK-MEL-28 melanoma): 51.5 µM
GI50 (MDA-MB-435): 15.3 µM
TGI (MDA-MB-435): 35.4 µM
GI50 (SNB-75 CNS): 43.5 µM
TGI (SNB-75 CNS): > 100 µM
GI50 (HL-60(TB) leukemia): 15.6 µM
TGI (HL-60(TB) leukemia): 35.5 µM
GI50 (KM12 colon): 19.8 µM
TGI (KM12 colon): 40.1 µM
GI50 (K-562 leukemia): 13.1 µM
TGI (K-562 leukemia): 35.5 µM
GI50 (SK-MEL-5 melanoma): 11.7 µM
TGI (SK-MEL-5 melanoma): 23.9 µM
GI50 (NCI-H522 lung): 14.3 µM
TGI (NCI-H522 lung): 31.5 µM
GI50 (EKVX NSCLC): 16.9 µM
TGI (EKVX NSCLC): 36.2 µM
GI50 (NCI-H226 lung): 18 µM
TGI (NCI-H226 lung): 40.7 µM
GI50 (A549 NSCLC): 14.7 µM
TGI (A549 NSCLC): 31.6 µM
GI50 (NCI/ADR-RES ovarian): 16 µM
TGI (NCI/ADR-RES ovarian): 34.5 µM
GI50 (MOLT-4 leukemia): 18.3 µM
TGI (MOLT-4 leukemia): 43.7 µM
GI50 (T-47D breast): 23 µM
TGI (T-47D breast): 64.5 µM
GI50 (CCRF-CEM leukemia): 15.6 µM
TGI (CCRF-CEM leukemia): 36.3 µM
GI50 (MCF7 breast): 24.8 µM
TGI (MCF7 breast): 50.5 µM
GI50 (SN12C renal): 16.4 µM
TGI (SN12C renal): 30.9 µM
GI50 (SK-MEL-2 melanoma): 18.9 µM
TGI (SK-MEL-2 melanoma): 56.6 µM
GI50 (SF-539 CNS): 18.3 µM
TGI (SF-539 CNS): 34.7 µM
GI50 (NCI-H23 lung): 15.8 µM
TGI (NCI-H23 lung): 30.1 µM
GI50 (MDA-MB-231 breast): 17.6 µM
TGI (MDA-MB-231 breast): 34.8 µM
GI50 (OVCAR-5 ovarian): 15.2 µM
TGI (OVCAR-5 ovarian): 29.1 µM
GI50 (PC-3 prostate): 15.2 µM
TGI (PC-3 prostate): 31.1 µM
GI50 (SW-620 colon): 14.4 µM
TGI (SW-620 colon): 30.1 µM
GI50 (HCT-116 colon): 15.7 µM
TGI (HCT-116 colon): 29.6 µM
GI50 (HOP-92 NSCLC): 22.6 µM
TGI (HOP-92 NSCLC): 45.2 µM
GI50 (OVCAR-8 ovarian): 18 µM
TGI (OVCAR-8 ovarian): 36.7 µM
GI50 (RPMI-8226 leukemia): 16.7 µM
TGI (RPMI-8226 leukemia): 43.9 µM
GI50 (SNB-19 CNS): 21.5 µM
TGI (SNB-19 CNS): 42.5 µM
GI50 (M14 melanoma): 15.7 µM
TGI (M14 melanoma): 30.2 µM
GI50 (NCI-H460 lung): 19.4 µM
TGI (NCI-H460 lung): 40.7 µM
GI50 (BT-549 breast): 18.8 µM
TGI (BT-549 breast): 41.5 µM
GI50 (ACHN renal): 20.1 µM
TGI (ACHN renal): 34.7 µM
GI50 (COLO 205 colon): 32.7 µM
TGI (COLO 205 colon): 88.7 µM
GI50 (TK-10 renal): 21.2 µM
TGI (TK-10 renal): 43.2 µM
GI50 (OVCAR-4 ovarian): 28 µM
TGI (OVCAR-4 ovarian): 75.1 µM
GI50 (SF-268 CNS): 20.3 µM
TGI (SF-268 CNS): 40.6 µM
GI50 (U251 CNS): 14 µM
TGI (U251 CNS): 27.4 µM
GI50 (HCC-2998 colon): 14.3 µM
TGI (HCC-2998 colon): 27.4 µM
GI50 (786-0 renal): 17.4 µM
TGI (786-0 renal): 33.3 µM
GI50 (OVCAR-3 ovarian): 25.1 µM
TGI (OVCAR-3 ovarian): 53.6 µM
GI50 (UACC-257 melanoma): 12.7 µM
TGI (UACC-257 melanoma): 26.2 µM
GI50 (SR leukemia): 14.3 µM
TGI (SR leukemia): 37.5 µM
GI50 (A498 renal): 16.7 µM
TGI (A498 renal): 35.4 µM
GI50 (SF-295 CNS): 20.4 µM
TGI (SF-295 CNS): 46.1 µM
GI50 (IGROV1 ovarian): 16.7 µM
TGI (IGROV1 ovarian): 37.2 µM
GI50 (UACC-62 melanoma): 12.5 µM
TGI (UACC-62 melanoma): 25 µM
GI50 (HOP-62 NSCLC): 19.6 µM
TGI (HOP-62 NSCLC): 34.4 µM
